Data on two compounds can be found in PubChem BioAssay AID504501 (Sanford-Burnham Center for Chemical Genomics, 2011).

The experiment addresses Sentrin-specific protease 8 (Homo sapiens) (UniProt Q96LD8). As to the kind of experiment: SENP8 protease inhibitors, SAR follow-up, biochemical, luminescence (AID 504501). The following applies: recombinant SENP8 enzyme, luminescent protease assay.

Chain of Sentrin-specific protease 8 (Homo sapiens) (Q96LD8 whole entry, looked up): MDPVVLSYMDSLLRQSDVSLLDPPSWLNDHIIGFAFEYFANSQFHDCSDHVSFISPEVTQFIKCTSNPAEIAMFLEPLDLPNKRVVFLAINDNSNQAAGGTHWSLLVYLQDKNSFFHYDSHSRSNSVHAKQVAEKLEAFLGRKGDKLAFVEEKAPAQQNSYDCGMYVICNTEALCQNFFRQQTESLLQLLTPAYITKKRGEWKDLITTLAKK

With `Cc1cccc(C(=O)Nc2scc(-c3ccc(Br)cc3)c2C(=O)O)c1`, the IC50 is 3.75 µM. To `Fc1ccc(COc2ccc(C(=S)N3CCCC3)cc2)cc1` belongs 2.5 µM.

By IC50 is commonly meant the concentration needed to halve the response being measured.
